Assay [1] addresses T1, human recombinant bradykinin B1 receptor (Homo sapiens, UniProt P46663).
T1 construct: host or cells: CHO cells, clone hB1-A5
T1 sequence (P46663 1-353): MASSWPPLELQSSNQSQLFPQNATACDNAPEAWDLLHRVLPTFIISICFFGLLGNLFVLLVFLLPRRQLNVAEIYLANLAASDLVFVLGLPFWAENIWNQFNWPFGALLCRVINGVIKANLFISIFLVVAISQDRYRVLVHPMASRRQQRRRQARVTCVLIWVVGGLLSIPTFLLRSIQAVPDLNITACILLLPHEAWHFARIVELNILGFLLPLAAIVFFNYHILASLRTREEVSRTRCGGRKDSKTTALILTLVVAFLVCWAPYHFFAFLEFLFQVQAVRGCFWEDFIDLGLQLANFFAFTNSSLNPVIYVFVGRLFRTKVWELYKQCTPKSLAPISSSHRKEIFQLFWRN
Briefly: Human recombinant bradykinin B1 receptor competitive radioligand binding. Particulars: hB1 expressed in CHO cells, [3H]-[Des-Arg10] Kallidin radioligand; read-out: B1 binding. A digest of the protocol: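 Membranes from CHO cells expressing hB1 (20 μg protein/tube) incubated 15 min at 25° C. with [3,4-prolyl-3,4-^3H(N)]-[Des-Arg^10] Kallidin; nonspecific binding defined with 10 μM Lys-des-Arg^9-Bradykinin. Bound label collected by filtration and counted. IC50 from ≥7-point curves in triplicate; Ki by Cheng-Prusoff.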

Assay [2] addresses T2, recombinant human B1 receptors (Homo sapiens, UniProt P46663).
T2 construct: host or cells: CHO (CHO-B1)
T2 sequence (P46663 1-353): T1 sequence (P46663 1-353)
In words: Functional assay: antagonist potency by cytosolic calcium measurement (plate reader fluorimeter) in CHO-B1 cells, agonist LysDABK. Type of assay: cell-based. Particulars: CHO-B1 cells, inhibition of LysDABK (EC80)-evoked [Ca2+]i elevation; read-out: B1 func. A digest of the protocol: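 IC50 is the concentration giving half-maximal inhibition of the LysDABK (EC80) calcium response, fitted from at least three experiments. CHO cells stably expressing human B1 were dye-loaded, exposed to compound for 20-25 min, then read by fluo-4 fluorescence (ΔF/F) at 37 °C.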

This note sets out measurements from patent publication US20130217702A1 (Richter Gedeon Nyrt., priority 2010, published 2013).

Bounds are passed on as bounds.

On to `Cc1nc(-c2c(Cl)c3cc(F)ccc3n2-c2ccc(CNC(=O)C3(NC(=O)c4cncc(C(F)(F)F)c4)CC3)cc2)no1` [Example 91, N-(1-{4-[3-Chloro-5-fluoro-2-(5-methyl-[1,2,4]oxadiazol-3-yl)-indol-1-yl]-benzylcarbamoyl}-cyclopropyl)-5-trifluoromethyl-nicotinamide], for which the Ki in assay [1] was less than 20 nM. Besides, the IC50 in assay [2] was less than 20 nM.
For the compound `Cc1cccc(C(=O)NC2(C(=O)NCc3ccc(-n4c(-c5noc(C)n5)c(Cl)c5ccccc54)cc3)CC2)c1` [Example 179, N-(1-{4-[3-Chloro-2-(5-methyl-[1,2,4]oxadiazol-3-yl)-indol-1-yl]-benzylcarbamoyl}-cyclopropyl)-3-methyl-benzamide], the Ki in assay [1] was less than 20 nM. Besides, the IC50 in assay [2] was 20 to 100 nM.
On the same counts, the results for `COc1cc(C(=O)NC2(C(=O)NCc3ccc(-n4c(-c5noc(C)n5)cc5cc(F)ccc54)cc3F)CC2)on1` [Example 133, 3-Methoxy-isoxazole-5-carboxylic acid (1-{2-fluoro-4-[5-fluoro-2-(5-methyl-[1,2,4]oxadiazol-3-yl)-indol-1-yl]-benzylcarbamoyl}-cyclopropyl)-amide] are less than 20 nM and less than 20 nM.
Take `COC(=O)c1c(Cl)c2ccccc2n1-c1ccc(CNC(=O)C2(NC(=O)c3cc(OC)no3)CC2)cc1` [Example 11, 3-Chloro-1-{4-[({1-[(3-methoxy-isoxazole-5-carbonyl)-amino]-cyclopropane-carbonyl}-amino)-methyl]-phenyl}-1H-indole-2-carboxylic acid methyl ester]: the Ki in assay [1] is less than 20 nM. Besides, the IC50 in assay [2] is less than 20 nM.
As to `Cc1nnc(-c2c(Cl)c3ccccc3n2-c2ccc(CNC(=O)C3(NC(=O)C(F)(F)F)CC3)cc2)o1` [Example 6, 1-(2,2,2-Trifluoro-acetylamino)-cyclopropanecarboxylic acid 4-[3-chloro-2-(5-methyl-[1,3,4]oxadiazol-2-yl)-indol-1-yl]-benzylamide], the Ki in assay [1] was in the range of 20 to 100 nM. The IC50 in assay [2] was in the range of 20 to 100 nM.
On to `Cc1cnc(C(=O)NC2(C(=O)NCc3ccc(-n4c(-c5noc(C)n5)c(Cl)c5ccccc54)cc3F)CC2)cn1` [Example 106, 5-Methyl-pyrazine-2-carboxylic acid (1-{4-[3-chloro-2-(5-methyl-[1,2,4]oxadiazol-3-yl)-indol-1-yl]-2-fluoro-benzylcarbamoyl}-cyclopropyl)-amide], for which the Ki in assay [1] was less than 20 nM. The IC50 in assay [2] is less than 20 nM.
As to `COc1cccc(C(=O)NC2(C(=O)NCc3ccc(-n4c(-c5noc(C)n5)c(Cl)c5ccccc54)cc3)CC2)c1` [Example 175, N-(1-{4-[3-Chloro-2-(5-methyl-[1,2,4]oxadiazol-3-yl)-indol-1-yl]-benzylcarbamoyl}-cyclopropyl)-3-methoxy-benzamide], the Ki in assay [1] is less than 20 nM. Moreover, in assay [2], the IC50 lay in the range of 20 to 100 nM.
For the compound `Cc1noc(-c2cc3cc(F)ccc3n2-c2ccc(CNC(=O)C3(NC(=O)c4cncc(C(F)(F)F)c4)CC3)cc2)n1` [Example 102, N-(1-{4-[5-Fluoro-2-(3-methyl-[1,2,4]oxadiazol-5-yl)-indol-1-yl]-benzylcarbamoyl}-cyclopropyl)-5-trifluoromethyl-nicotinamide], in assay [1], the Ki was less than 20 nM. In addition, the IC50 in assay [2] was less than 20 nM.
Regarding `CCc1cc(C(=O)NC2(C(=O)NCc3ccc(-n4c(-c5noc(C)n5)c(Cl)c5ccccc54)cc3)CC2)on1` [Example 123, 3-Ethyl-isoxazole-5-carboxylic acid (1-{4-[3-chloro-2-(5-methyl-[1,2,4]oxadiazol-3-yl)-indol-1-yl]-benzylcarbamoyl}-cyclopropyl)-amide], the Ki in assay [1] was less than 20 nM. Also, the IC50 in assay [2] was less than 20 nM.
As to `COc1cc(C(=O)NC2(C(=O)NCc3ccc(-n4c(-c5nc(C)no5)c(Cl)c5ccccc54)cc3)CC2)on1` [Example 193, 3-Methoxy-isoxazole-5-carboxylic acid (1-{4-[3-chloro-2-(3-methyl-[1,2,4]oxadiazol-5-yl)-indol-1-yl]-benzylcarbamoyl}-cyclopropyl)-amide], in assay [1], the Ki was less than 20 nM. For the same compound, the IC50 in assay [2] is less than 20 nM.
For `Cn1nnc(-c2c(Cl)c3cc(F)ccc3n2-c2ccc(CNC(=O)C3(NC(=O)C(F)(F)F)CC3)cc2)n1` [Example 12, 1-(2,2,2-Trifluoro-acetylamino)-cyclopropanecarboxylic acid 4-[3-chloro-5-fluoro-2-(2-methyl-2H-tetrazol-5-yl)-indol-1-yl]-benzylamide], in assay [1], the Ki was less than 20 nM. For the same compound, the IC50 in assay [2] was less than 20 nM.
Consider `Cc1nc(-c2cc3ccccc3n2-c2ccc(CNC(=O)C3(NC(=O)CC(F)(F)F)CC3)cc2)no1` [Example 81, 1-(3,3,3-Trifluoro-propionylamino)-cyclopropanecarboxylic acid 4-[2-(5-methyl-[1,2,4]oxadiazol-3-yl)-indol-1-yl]-benzylamide], for which the Ki in assay [1] was less than 20 nM. Further, the IC50 in assay [2] is less than 20 nM.
As for `Cc1nc(-c2c(Cl)c3ccccc3n2-c2ccc(CNC(=O)C3(NC(=O)c4cccnc4)CC3)cc2)no1` [Example 158, N-(1-{4-[3-Chloro-2-(5-methyl-[1,2,4]oxadiazol-3-yl)-indol-1-yl]-benzylcarbamoyl}-cyclopropyl)-nicotinamide], the Ki in assay [1] was less than 20 nM. For the same compound, the IC50 in assay [2] was less than 20 nM.
On to `Cc1noc(-c2c(Cl)c3ccccc3n2-c2ccc(CNC(=O)C3(NC(=O)c4cc(C5CC5)on4)CC3)cc2)n1` [Example 114, 5-Cyclopropyl-isoxazole-3-carboxylic acid (1-{4-[3-chloro-2-(3-methyl-[1,2,4]oxadiazol-5-yl)-indol-1-yl]-benzylcarbamoyl}-cyclopropyl)-amide], for which the Ki in assay [1] is less than 20 nM. Moreover, the IC50 in assay [2] was less than 20 nM.
For `COc1cc(C(=O)NC2(C(=O)NCc3ccc(-n4c(-c5noc(C)n5)c(Cl)c5cc(F)ccc54)cn3)CC2)on1` [Example 62, 3-Methoxy-isoxazole-5-carboxylic acid [1-({5-[3-chloro-5-fluoro-2-(5-methyl-[1,2,4]oxadiazol-3-yl)-indol-1-yl]-pyridin-2-ylmethyl}-carbamoyl)-cyclopropyl]-amide], the Ki in assay [1] is less than 20 nM. For the same compound, the IC50 in assay [2] is less than 20 nM.
Take `Cc1nc(-c2c(Cl)c3ccccc3n2-c2ccc(CNC(=O)C3(NC(=O)c4cccnc4Cl)CC3)c(F)c2)no1` [Example 104, 2-Chloro-N-(1-{4-[3-chloro-2-(5-methyl-[1,2,4]oxadiazol-3-yl)-indol-1-yl]-2-fluoro-benzylcarbamoyl}-cyclopropyl)-nicotinamide]: the Ki in assay [1] was less than 20 nM. Besides, the IC50 in assay [2] was less than 20 nM.
On to `Cc1nc(-c2c(Cl)c3ccccc3n2-c2ccc(CNC(=O)C3(NC(=O)c4cc(F)cc(C(F)(F)F)c4)CC3)cc2)no1` [Example 94, N-(1-{4-[3-Chloro-2-(5-methyl-[1,2,4]oxadiazol-3-yl)-indol-1-yl]-benzylcarbamoyl}-cyclopropyl)-3-fluoro-5-trifluoromethyl-benzamide], for which, in assay [1], the Ki is less than 20 nM. The IC50 in assay [2] was less than 20 nM.
For the compound `Cc1nc(-c2c(Cl)c3ccccc3n2-c2ccc(CNC(=O)C3(NC(=O)c4ccco4)CC3)cc2)no1` [Example 145, Furan-2-carboxylic acid (1-{4-[3-chloro-2-(5-methyl-[1,2,4]oxadiazol-3-yl)-indol-1-yl]-benzylcarbamoyl}-cyclopropyl)-amide], the Ki in assay [1] is 20 to 100 nM. For the same compound, the IC50 in assay [2] is 20 to 100 nM.
As to `CSc1ncc(C(=O)NC2(C(=O)NCc3ccc(-n4c(-c5noc(C)n5)c(Cl)c5ccccc54)cc3)CC2)cn1` [Example 77, 2-Methylsulfanyl-pyrimidine-5-carboxylic acid (1-{4-[3-chloro-2-(5-methyl-[1,2,4]oxadiazol-3-yl)-indol-1-yl]-benzylcarbamoyl}-cyclopropyl)-amide], the Ki in assay [1] was less than 20 nM. Besides, the IC50 in assay [2] is less than 20 nM.
Take `Cc1nc(-c2c(Cl)c3ccccc3n2-c2ccc(CNC(=O)C3(NC(=O)c4conc4C)CC3)cc2)no1` [Example 181, 3-Methyl-isoxazole-4-carboxylic acid (1-{4-[3-chloro-2-(5-methyl-[1,2,4]oxadiazol-3-yl)-indol-1-yl]-benzylcarbamoyl}-cyclopropyl)-amide]: the Ki in assay [1] is less than 20 nM. For the same compound, the IC50 in assay [2] is less than 20 nM.
In the case of `COc1ccc2c(c1)c(Cl)c(-c1noc(C)n1)n2-c1ccc(CNC(=O)C2(NC(=O)c3cc(OC)no3)CC2)cc1` [Example 64, 3-Methoxy-isoxazole-5-carboxylic acid (1-{4-[3-chloro-5-methoxy-2-(5-methyl-[1,2,4]oxadiazol-3-yl)-indol-1-yl]-benzylcarbamoyl}-cyclopropyl)-amide], the Ki in assay [1] was less than 20 nM. The IC50 in assay [2] was less than 20 nM.
Turning to `COc1ccc2c(c1)cc(-c1nnc(C)o1)n2-c1ccc(CNC(=O)C2(NC(=O)CC(F)(F)F)CC2)cc1` [Example 124, 1-(3,3,3-Trifluoro-propionylamino)-cyclopropanecarboxylic acid 4-[5-methoxy-2-(5-methyl-[1,3,4]oxadiazol-2-yl)-indol-1-yl]-benzylamide], the Ki in assay [1] was in the range of 20 to 100 nM. For the same compound, the IC50 in assay [2] is 20 to 100 nM.
